Measured values taken from patent US7557268B1, “Promoter for expression of a gene and response to infection or wounding” (priority 1999, dated 2009).
Where two headings read alike, the source gives them in different places.

What was measured:
[1] = tested on: pAG516 promoter deletion (gus reporter) in PR4-19, PR4-21, PR4-22; assay: Promoter activity of deletion construct pAG516 in leaf disks of transgenic tobacco; format: cell-based; details: for Separated + SA Specific GUS Activity: leaf disks; for SA-Induction: vs fresh harvested control leaves
[2] = tested on: sugar beet promoter (gus reporter) in transgenic rape lines AG5947-t38, AG5947-t48; assay: Induction of the promoter in leaf disks of transgenic rape by salicylic acid and PMG-elicitor; format: cell-based; details: SA 0.5 mM, PMG-Elicitor 25 μg/ml
Text: In order to examine the effect of salicylic acid and a purified PMG-elicitor from the cell wall of Phytophthora sojae (Valent, 1978) on the promoter activity, leaf disks with a diameter of 14 mm were stamped out of the leaves of greenhouse plants with the aid of a cork punch. The use of leaf disks facilitates the uptake of the salicylic acid or as the case may be the elicitor along the wound edge into the leaf tissue. Respectively 10 leaf disks from leaves of the transformed AG5947-t38 and […] were incubated in 90 mm sized petri dishes in salicylic acid containing medium (LS-medium without sucrose, 5 mM MES pH 7.0, 0.5 mM SA), in PMG-elicitor containing medium (LS-medium without sucrose, 5 mM MES pH 7.0, 25 μg elicitor/ml) or in control medium (LS-medium without sucrose, 5 mM MES pH 7.0) for 16 hours at 24° C. The activity of a promoter is described as in Jefferson (1987) measured by a quantitative determination of the GUS-activity.

[3] = tested on: promoter activity (transcript amount) in leaves of sugar beets; assay: Activation of the promoter in sugar beet leaf disks by salicylic acid, RNA-blot with phosphoimager; format: cell-based; details: for transcript amount formed by the promoter activity: sugar beet leaf disks, 2.0 mM Salicyclic Acid
Experimental: In order to investigate the reaction of the promoter in sugar beet leaves to abiotic triggers such as wounds or, as the case may be, on the effect of resistance inductors such as salicylic acid, leaf disks (1 cm diameter) were punched out of 12 week old sugar beets with the aid of a cork stamp. Respectively 100 leaf disks were incubated in control medium (LS-Medium without Sucrose, 5 mM MES pH 7.0) or in salicylic acid containing medium (LS-Medium without Sucrose, 5 mM MES pH 7.0, 2.0 mM SA) for 16 hours at 24° C. Total cell RNA was isolated and an RNA-blot analysis was carried out as described above. The intensity of the hybridization as signal on the RNA-blot was quantified with the aid of a Phosphoimager. The promoter activity of the disks in the control set is not constant over the experiment (Table 8). Based on the 0 hour value, the promoter activity in the control set falls slightly after 3 hours, only to then increase over 6 hours and 11 hours until the 24 hour value. After 24 hours the transcript amount in the control set is approximately 3-fold higher than in the beginning of the experiment (0 h). This rise in the promoter activity is to be traced back to the wounding of the leaf tissue during the stamping out of the leaf disks. […] In the salicylic acid containing medium there is likewise a rise in the transcript amount depending upon the time (Table 8). […] Thus the transcript amount after 24 hours is approximately the 8.5-fold of the 0 h value. The cause of the higher activity of the promoter in the salicylic acid containing medium is the inducibility of the promoter by salicylic acid.

[4] = tested on: sugar beet promoter (pAG5947-trans, gus reporter) in transgenic tobacco PR1-52; assay: Promoter activity in leaf disks of transgenic tobacco PR1-52 with increasing plant age; format: cell-based, Nicotianum tabacum cv. SR1; details: for Separated + SA Specific GUS-Activity: leaf disks, 0.5 mM SA, 16 hours; for SA-Induction: vs fresh harvested control leaves
Experimental: […] SR1. The produced tobacco transformates are given identification PR1-52, PR1-54 and PR1-56. The transformate PR1-52 is multiplied and placed in a greenhouse. After the plant has achieved a height of approximately 20 cm, the activatability of the sugar beet promoter is analyzed depending upon the plant age. For this, 6 leaves of different ages on the plant were selected. The oldest, lowest leaf is given reference number 1 and the youngest, highest leaf is given the reference number 6. From the leaf half of one of each leaf there is stamped out, with the aid of a 14 mm cork punch, respectively 15 equally sized leaf disks. Respectively 5 leaf disks are incubated in 90 mm sized petri dishes in salicylic acid containing medium (LS-Medium without Sucrose, 5 mM MES pH 7.0, 0.5 mM SA), in PMG-elicitor containing medium (LS-Medium without Sucrose, 5 mM MES pH 7.0, 1 unit elicitor/ml) or in control medium (LS-Medium without Sucrose, 5 mM MES pH 7.0) for 16 hours at 24° C. On the next day, from each treated leaf half again 5 disks were stamped out for control purposes. The activity of the promoter in these disks as well as the disks incubated over night were measured according to Jefferson (1987) by a quantitative determination of the GUS-activity. After 16 days the corresponding test is repeated with the still intact leaf halves of the leaves 1-6. The tobacco plant is in the meantime grown and approximately 50-60 cm high. […] The promoter activity increases with increasing age of the transgenic plants. The wounding or as the case may be the elicitation or as the case may be salicylic acid application leads, in the reporter gene plant with high plant age, in all examined leaves to a higher reporter gene activity and therewith promoter activity. The plant age has however no influence on the relative induction of the promoter by wounding, elicitation or salicylic acid application.

[5] = tested on: SR1 non-transgenic starting line; assay: GUS activity in leaf disks of the non-transgenic tobacco starting line; format: cell-based
[6] = tested on: pAG2339 promoter deletion (gus reporter) in PR8-2, PR8-3, PR8-12; format: cell-based, tobacco; details: leaf disks, SA
[7] = tested on: pAG5947-trans promoter (gus reporter) in PR1-52, PR1-54, PR1-56; assay: Promoter activity of pAG5947-trans in leaf disks of transgenic tobacco; format: cell-based; details: for SA-Induction: vs fresh harvested control leaves

SMILES: O=C(O)c1ccccc1O [SA, salicylic acid]
- Separated + SA Specific GUS Activity ([1]; PR4-19 (pAG516)): 16.6 pMol Mu × min^−1 × mg^−1
- SA-Induction ([1]; PR4-19 (pAG516)): 2.3
- Separated + SA Specific GUS Activity ([1]; PR4-21 (pAG516)): 21.3 pMol Mu × min^−1 × mg^−1
- SA-Induction ([1]; PR4-21 (pAG516)): 0.6
- Separated + SA Specific GUS Activity ([1]; PR4-22 (pAG516)): 19.3 pMol Mu × min^−1 × mg^−1
- SA-Induction ([1]; PR4-22 (pAG516)): 3.6
- SA-inducibility (in words) ([1]; plants transformed with the construct pAG516, leaf disks): small SA-inducibility
- AG5947-t38 Specific GUS-Activities ([2]; AG5947-t38 leaf disks, 16 hours at 24° C.): 485.3 pMol Mu × min^−1 × mg^−1
- AG5947-t38 Induction ([2]; AG5947-t38 leaf disks, vs control medium): 19.8
- AG5947-t48 Specific GUS-Activity ([2]; AG5947-t48 leaf disks, 16 hours at 24° C.): 17.2 pMol Mu × min^−1 × mg^−1
- AG5947-t48 Induction ([2]; AG5947-t48 leaf disks, vs control medium): 9.2
- transcript amount after 24 hours relative to the 0 h value ([3]; sugar beet leaf disks in salicylic acid containing medium (2.0 mM SA)): ~8.5 fold
- transcript amount formed by the promoter activity ([3]; Time 0 h): 81 PSL (photo stimulated luminescence)-units
- transcript amount formed by the promoter activity ([3]; Time 3 h): 107 PSL (photo stimulated luminescence)-units
- transcript amount formed by the promoter activity ([3]; Time 6 h): 284 PSL (photo stimulated luminescence)-units
- transcript amount formed by the promoter activity ([3]; Time 11 h): 513 PSL (photo stimulated luminescence)-units
- transcript amount formed by the promoter activity ([3]; Time 24 h): 688 PSL (photo stimulated luminescence)-units
- Separated + SA Specific GUS-Activity ([4]; PR1-52, Leaf 1, t = 0 d): 314.92 pMol Mu × min^−1 × mg^−1
- SA-Induction ([4]; PR1-52, Leaf 1, t = 0 d): 5.3
- Separated + SA Specific GUS-Activity ([4]; PR1-52, Leaf 1, t = 16 d): 861.82 pMol Mu × min^−1 × mg^−1
- SA-Induction ([4]; PR1-52, Leaf 1, t = 16 d): 30.5
- Separated + SA Specific GUS-Activity ([4]; PR1-52, Leaf 2, t = 0 d): 205.53 pMol Mu × min^−1 × mg^−1
- SA-Induction ([4]; PR1-52, Leaf 2, t = 0 d): 13.6
- Separated + SA Specific GUS-Activity ([4]; PR1-52, Leaf 2, t = 16 d): 2358.18 pMol Mu × min^−1 × mg^−1
- SA-Induction ([4]; PR1-52, Leaf 2, t = 16 d): 30.7
- Separated + SA Specific GUS-Activity ([4]; PR1-52, Leaf 3, t = 0 d): 225.07 pMol Mu × min^−1 × mg^−1
- SA-Induction ([4]; PR1-52, Leaf 3, t = 0 d): 21.7
- Separated + SA Specific GUS-Activity ([4]; PR1-52, Leaf 3, t = 16 d): 555.62 pMol Mu × min^−1 × mg^−1
- SA-Induction ([4]; PR1-52, Leaf 3, t = 16 d): 8.8
- Separated + SA Specific GUS-Activity ([4]; PR1-52, Leaf 4, t = 0 d): 117.97 pMol Mu × min^−1 × mg^−1
- SA-Induction ([4]; PR1-52, Leaf 4, t = 0 d): 25.7
- Separated + SA Specific GUS-Activity ([4]; PR1-52, Leaf 4, t = 16 d): 1561.3 pMol Mu × min^−1 × mg^−1
- SA-Induction ([4]; PR1-52, Leaf 4, t = 16 d): 44.5
- Separated + SA Specific GUS-Activity ([4]; PR1-52, Leaf 5, t = 0 d): 140.37 pMol Mu × min^−1 × mg^−1
- SA-Induction ([4]; PR1-52, Leaf 5, t = 0 d): 29.4
- Separated + SA Specific GUS-Activity ([4]; PR1-52, Leaf 5, t = 16 d): 1220.71 pMol Mu × min^−1 × mg^−1
- SA-Induction ([4]; PR1-52, Leaf 5, t = 16 d): 9.0
- Separated + SA Specific GUS-Activity ([4]; PR1-52, Leaf 6, t = 0 d): 106.35 pMol Mu × min^−1 × mg^−1
- SA-Induction ([4]; PR1-52, Leaf 6, t = 0 d): 319.4
- Separated + SA Specific GUS-Activity ([4]; PR1-52, Leaf 6, t = 16 d): 1003.47 pMol Mu × min^−1 × mg^−1
- SA-Induction ([4]; PR1-52, Leaf 6, t = 16 d): 47.0
- Separated + SA Specific GUS Activity ([5]; leaf disks, SA): 6.2 pMol Mu × min^−1 × mg^−1
- SA-Induction ([5]; vs fresh harvested control leaves): 0.8
- Separated + SA Specific GUS Activity ([6]; PR8-2 (pAG2339)): 1.7 pMol Mu × min^−1 × mg^−1
- Separated + SA Specific GUS Activity ([6]; PR8-3 (pAG2339)): 0 pMol Mu × min^−1 × mg^−1
- Separated + SA Specific GUS Activity ([6]; PR8-12 (pAG2339)): 0 pMol Mu × min^−1 × mg^−1
- Separated + SA Specific GUS Activity ([7]; PR1-52 (pAG5947-trans), leaf disks): 218.93 pMol Mu × min^−1 × mg^−1
- SA-Induction ([7]; PR1-52 (pAG5947-trans)): 14.5
- Separated + SA Specific GUS Activity ([7]; PR1-54 (pAG5947-trans), leaf disks): 167.83 pMol Mu × min^−1 × mg^−1
- SA-Induction ([7]; PR1-54 (pAG5947-trans)): 8.0
- Separated + SA Specific GUS Activity ([7]; PR1-56 (pAG5947-trans), leaf disks): 661.19 pMol Mu × min^−1 × mg^−1
- SA-Induction ([7]; PR1-56 (pAG5947-trans)): 8.3
- change of reporter gene / promoter activity (in words) ([7]; lines PR1-52, PR1-54 and PR1-56 transformed with pAG5947-trans, leaf disks): significant induction
